Experimental findings from PubChem BioAssay AID588780 (Sanford-Burnham Center for Chemical Genomics, 2011) are described below.

SMILES strings stand for the structures. The source made the active and inactive calls.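 How the source made its calls: active means compounds whose fitted half-maximal concentration in the cell-protection dose series is at or below a set limit; inactive means the rest.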

This test concerns H9c2 cardiomyocytes, 2-deoxyglucose stress, ATP luminescence, 2 h. Nature of the test: protection of cardiomyocytes from 2-deoxyglucose injury, dose response, cell-based, 2-deoxyglucose stress, uHTS hits (AID 588780).
Regarding `Cc1ncc(CO)c2cc(C(=O)Nc3ccccc3Cl)c(=Nc3cccc(C(N)=O)c3)oc12`, the IC50 was > 79 µM (inactive).
Under `COc1ccc(CCn2c(Br)nc3c2c(=O)[nH]c(=O)n3C)cc1` stands > 79 µM (inactive); under `COc1ccc(-c2cc(NC=O)c3ncc(-c4ccccc4)n3c2)cc1OC`, > 79 µM (inactive).
As to `COCCCN(Cc1ccco1)C(=O)Cn1ncc2c([nH]c3ccccc32)c1=O`, the IC50 was 13.8 µM.
Take `Cc1ccc(NC(=O)c2cc(-c3cccs3)nc3ccccc23)nc1`: the IC50 was 9.88 µM.
The result for `CN(CC1COc2ccccc2O1)c1nc(-c2cccnc2)nc2ccccc12` (stereo not given) reads > 79 µM (inactive).
The result for `O=C(CN(C(=O)Cn1nnc(-c2cccs2)n1)c1cnc2ccccc2c1)NCC1CCCO1` (stereo not given) reads > 79 µM (inactive); that for `O=c1[nH]c(-c2cccnc2)nc2ccccc12`, > 79 µM (inactive).
Take `COc1ccc(Nc2nnc(SCc3cc(=O)n4ccsc4n3)s2)cc1`: the IC50 was 14.1 µM.
The result for `O=C(CSc1nc2ccccc2c(=O)[nH]1)N1CCOCC1` reads > 79 µM (inactive); that for `COc1nc(N/N=C/c2cc3c(cc2Br)OCO3)nc(N2CCOCC2)n1`, 15.7 µM.
As for `c1ccc(N2CCOCC2)c(Nc2nc3ccccc3n3cnnc23)c1`, the half-inhibitory concentration (IC50) is 23.4 µM.
Under `COc1cc(-c2cc(C(=O)Nc3cccc(C(C)=O)c3)c3ccccc3n2)cc(OC)c1OC` stands > 79 µM (inactive); under `O=C(COc1cccc2c1CCNC2=O)NC1CCCCC1`, > 79 µM (inactive); under `COc1ccc(NC(=O)c2cc3c(=O)n(C)c4ccccc4c3n2C)cc1OC`, > 79 µM (inactive).
The result for `O=C(NCc1ccco1)c1cc(-c2cccnc2)nc2ccc(Cl)cc12` reads > 79 µM (inactive); that for `COc1ccc(Br)cc1C(=O)Nc1cccc(NC(=O)c2ccco2)c1`, > 79 µM (inactive).
Turning to `COc1ccc(C(=O)Nc2cccc(/C(C)=N/NC(=O)c3ccc([N+](=O)[O-])c(C)c3)c2)cc1OC`, the IC50 was > 79 µM (inactive).
Regarding `COc1ccc(/C=N/NC(=O)c2cccnc2)cc1CSc1nc2ccccc2s1`, the IC50 is 12.2 µM.
For `O=c1cc(CSc2nc3ccccc3c(=O)[nH]2)c2ccc(O)cc2o1`, the IC50 is > 79 µM (inactive).
The result for `O=C(NCc1ccc2c(c1)OCO2)c1n[nH]c(=O)c2ccccc12` reads > 79 µM (inactive).
The result for `CCOC(=O)C1CCN(c2cc3c(cc2NC(=O)c2ccccc2)n(C)c(=O)n3C)CC1` reads > 79 µM (inactive).
Under `O=C(COC(=O)Cc1n[nH]c(=O)c2ccccc12)Nc1ncc(Cl)cc1Cl` stands > 79 µM (inactive); under `O=C(Cc1n[nH]c(=O)c2ccccc12)NCc1ccccn1`, > 79 µM (inactive).
Turning to `COc1ccc(CCCNC(=O)C2(C)Cc3c(-c4ccc(NC(C)=O)cc4)ccnc3O2)cc1` (stereo not given), the IC50 was > 79 µM (inactive).
Consider `CCOc1ccc(-n2c(C)c(C(C)=O)c3cc(OC(C)=O)ccc32)cc1`, for which the IC50 was > 79 µM (inactive).
Take `CNc1ccccc(C(=O)/C=C/c2ccccc2OC)c1=O`: the IC50 is > 79 µM (inactive).
The result for `COc1ccc(NCc2cc3cc(OC)ccc3[nH]c2=O)cc1` reads > 79 µM (inactive); that for `O=C1OCCN1C(=O)[C@H]1[C@H](c2ccc([N+](=O)[O-])cc2)C(c2cccc(Cl)c2)=NN1c1ccc(Br)cc1`, > 79 µM (inactive); that for `COc1ccc(-c2cc(-c3ccc(O)cc3)nc(N)c2C#N)cc1OC`, > 79 µM (inactive).
For `Cc1cc(C)c(S(=O)(=O)N2CCN(C(=O)c3cc(=O)[nH]c4ccccc34)CC2)c(C)c1`, the IC50 was 19.3 µM.
The result for `CCOc1ccc2[nH]c(=O)c(CN(Cc3ccco3)C(CC)c3nnnn3Cc3ccccc3)cc2c1` (stereo not given) reads > 79 µM (inactive); that for `O=C(Nc1nc(-c2ccccn2)cs1)c1ccccc1-n1cnnn1`, > 79 µM (inactive); that for `COc1ccc(-n2c(/C=C/c3ccc(O)c(OC)c3)nc3ccccc3c2=O)cc1`, > 79 µM (inactive).
The result for `O=C(c1ccoc1)N1CCN(c2cc(-c3ccncc3)nc3cc(-c4cccc(Cl)c4)nn23)CC1` reads > 79 µM (inactive); that for `CCCCCn1c(=O)c(C(=O)NCc2ccccn2)c(O)c2ccccc21`, 7.77 µM; that for `CC(C)(C)OC(=O)CNC(=O)c1[nH]cnc1C(=O)Nc1ccc(CNC(=O)OC(C)(C)C)cc1`, > 79 µM (inactive).
With `N#Cc1c(-c2cccs2)cc(-c2cccnc2)nc1N`, the IC50 is > 79 µM (inactive).
For `Cn1c(-c2ccc(Cl)cc2)cnc1N`, the IC50 was > 79 µM (inactive).
The result for `CC(C)(C)OC(=O)NCC12C=CC(O1)C1C(=O)N(Cc3ccccc3)C(=O)C12` (stereo not given) reads > 79 µM (inactive); that for `CC(C)N1C(=O)S/C(=C/c2ccc3c(c2)n(C)c(=O)n3C)C1=O`, > 79 µM (inactive); that for `Cc1ccc(C(=O)N/N=C\c2ccc(-c3ccc(Cl)cc3)o2)cn1`, 9.3 µM.
The result for `Cc1ccc(Nc2nc(N)[nH]c(=O)c2N=O)cc1` reads > 79 µM (inactive); that for `Cc1ccc(C)c(C(=O)Nc2cc(C)nn2-c2nc(C)cc(C)n2)c1`, > 79 µM (inactive); that for `COc1ccc(-c2cc(C(=O)N3CCN(c4ccccc4)CC3)c3ccccc3n2)cc1OC`, > 79 µM (inactive).
Under `O=C1NC(Cc2ccc(O)cc2)c2nc3ccc(F)cc3c(=O)n2-c2cc3ccccc3cc21` (stereo not given) stands 12.4 µM.
On to `CCOc1ccc(C(=O)COC(=O)Cn2[nH]c(=O)c3ccccc3c2=O)cc1`, for which the IC50 is > 79 µM (inactive).
On to `Cn1c2c(c(=O)n(C)c1=O)C(c1ccc(Br)cc1)Nc1ccccc1O2` (stereo not given), for which the IC50 is > 79 µM (inactive).
As to `O=C(CCc1nc2ccccc2c(=O)[nH]1)OCc1nnc(-c2ccccc2)o1`, the IC50 was > 79 µM (inactive).
The result for `COCCN1CCN(c2c3c(nc4cc(-c5cccc(F)c5)nn24)CCC3)CC1` reads 60.1 µM (inactive); that for `CCOC(=O)Cc1csc(NC(=O)NC2(C(F)(F)F)Oc3ccc(Cl)cc3O2)n1` (stereo not given), > 79 µM (inactive); that for `CCCCCn1nc(C(=O)OCC(=O)c2c(N)n(C)c(=O)n(C)c2=O)c2ccccc2c1=O`, 20.1 µM.
The result for `COc1cccc(-c2cnc3c(NC=O)cc(-c4cc(OC)c(OC)c(OC)c4)cn23)c1` reads > 79 µM (inactive).
In the case of `CC(C(=O)NC1CCCC1)N(C(=O)Cn1nnc(-c2ccc(F)cc2)n1)c1ccccc1F` (stereo not given), the IC50 is > 79 µM (inactive).
Under `O=C(c1cc2nc(-c3ccccc3)cc(-c3ccccc3)n2n1)N1CCN(C(=O)c2ccco2)CC1` stands 9.32 µM.
Turning to `O=C1C2C3C=CC(CC3)C2C(=O)N1c1cccc(Br)c1` (stereo not given), the IC50 was > 79 µM (inactive).
Under `COc1ccc(OC)c(NC(=O)COC(=O)c2c3c(nc4ccccc24)CCCC3)c1` stands > 79 µM (inactive); under `COc1cc2c(cc1OC)CN(CC(=O)Nc1ccccc1C#N)CC2`, 44.1 µM (inactive).
The result for `C[C@H](CO)N1C[C@H](C)[C@@H](CN(C)C(=O)Nc2ccc3c(c2)OCO3)Oc2c(NC(=O)Nc3ccc(C(F)(F)F)cc3)cccc2C1=O` reads > 79 µM (inactive).
For `CCOC(=O)c1c(C)[nH]c(C)c1C(=O)COc1ncnc2cc([N+](=O)[O-])ccc12`, the IC50 was 14.6 µM.
